In the NIST ThermoML archive (doi:10.1016/j.jct.2011.12.008):
Numbers after ± are expanded uncertainties.

Test: xn = mol fraction of the nth substance listed
Details: 101 kPa, Liquid; for viscosity: Capillary tube (Ostwald / Ubbelohde) method; for mass density: Vibrating tube method

CCCCCCn1cc[n+](C)c1.F[B-](F)(F)F [1-hexyl-3-methylimidazolium tetrafluoroborate] + CC(C)CO
Details | mass density [kg/m3] | viscosity [mPa·s]
293.15 K, x1 = 0.3101 | 989.53 ± 0.44 | 18.26 ± 0.76
293.15 K, x1 = 0.4279 | 1031.42 ± 0.49 | 26.88 ± 1.1
293.15 K, x1 = 0.5606 | 1068.28 ± 0.62 | 49.75 ± 2.1
293.15 K, x1 = 0.6901 | 1097.67 ± 0.76 | 84.38 ± 3.6
293.15 K, x1 = 0.8327 | 1123.89 ± 0.93 | 138.81 ± 6.3
293.15 K, x1 = 1 | 1149.05 ± 1.1 | 234.68 ± 11
298.15 K, x1 = 0.3101 | 985.83 ± 0.43 | 15.47 ± 0.64
298.15 K, x1 = 0.4279 | 1027.83 ± 0.49 | 23.01 ± 0.95
298.15 K, x1 = 0.5606 | 1064.75 ± 0.62 | 37.72 ± 1.6
298.15 K, x1 = 0.6901 | 1094.14 ± 0.76 | 66.81 ± 2.8
298.15 K, x1 = 0.8327 | 1120.44 ± 0.93 | 107.94 ± 4.7
298.15 K, x1 = 1 | 1145.61 ± 1.1 | 178.92 ± 8.4
303.15 K, x1 = 0.1004 | 870.1 ± 0.39 | 5.95 ± 0.25
303.15 K, x1 = 0.151 | 902.53 ± 0.37 | 7.454 ± 0.31
303.15 K, x1 = 0.2009 | 931.08 ± 0.36 | 8.374 ± 0.35
303.15 K, x1 = 0.3101 | 982.2 ± 0.4 | 12.94 ± 0.54
303.15 K, x1 = 0.4279 | 1024.31 ± 0.48 | 18.9 ± 0.79
303.15 K, x1 = 0.5606 | 1061.3 ± 0.61 | 32.1 ± 1.3
303.15 K, x1 = 0.6901 | 1090.76 ± 0.75 | 53.77 ± 2.2
303.15 K, x1 = 0.8327 | 1117.15 ± 0.92 | 84.55 ± 3.6
303.15 K, x1 = 1 | 1142.3 ± 1.1 | 136.15 ± 6.2
308.15 K, x1 = 0.1004 | 866.28 ± 0.39 | 4.975 ± 0.21
308.15 K, x1 = 0.151 | 898.71 ± 0.37 | 6.339 ± 0.26
308.15 K, x1 = 0.2009 | 927.23 ± 0.36 | 7.116 ± 0.29
308.15 K, x1 = 0.3101 | 978.63 ± 0.4 | 10.74 ± 0.44
308.15 K, x1 = 0.4279 | 1020.8 ± 0.48 | 15.81 ± 0.66
308.15 K, x1 = 0.5606 | 1057.79 ± 0.61 | 25.74 ± 1.1
308.15 K, x1 = 0.6901 | 1087.32 ± 0.75 | 45.36 ± 1.9
308.15 K, x1 = 0.8327 | 1113.75 ± 0.92 | 67.62 ± 2.9
308.15 K, x1 = 1 | 1138.95 ± 1.1 | 106.65 ± 4.7
313.15 K, x1 = 0.1004 | 862.42 ± 0.39 | 4.108 ± 0.17
313.15 K, x1 = 0.151 | 894.93 ± 0.37 | 5.202 ± 0.22
313.15 K, x1 = 0.2009 | 923.74 ± 0.36 | 6.184 ± 0.25
313.15 K, x1 = 0.3101 | 975.11 ± 0.4 | 9.102 ± 0.38
313.15 K, x1 = 0.4279 | 1017.21 ± 0.48 | 13.43 ± 0.56
313.15 K, x1 = 0.5606 | 1054.27 ± 0.6 | 21.67 ± 0.9
313.15 K, x1 = 0.6901 | 1083.88 ± 0.74 | 37.52 ± 1.6
313.15 K, x1 = 0.8327 | 1110.33 ± 0.91 | 52.79 ± 2.2
313.15 K, x1 = 1 | 1135.59 ± 1.1 | 83.13 ± 3.6
318.15 K, x1 = 0.1004 | 858.54 ± 0.4 | 3.188 ± 0.13
318.15 K, x1 = 0.151 | 891.18 ± 0.38 | 4.388 ± 0.18
318.15 K, x1 = 0.2009 | 920.15 ± 0.36 | 5.281 ± 0.22
318.15 K, x1 = 0.3101 | 971.5 ± 0.4 | 7.758 ± 0.32
318.15 K, x1 = 0.4279 | 1013.64 ± 0.47 | 11.45 ± 0.47
318.15 K, x1 = 0.5606 | 1050.78 ± 0.6 | 18.8 ± 0.78
318.15 K, x1 = 0.6901 | 1080.45 ± 0.74 | 31.4 ± 1.3
318.15 K, x1 = 0.8327 | 1106.94 ± 0.9 | 45.07 ± 1.9
318.15 K, x1 = 1 | 1132.22 ± 1.1 | 69.13 ± 2.9
323.15 K, x1 = 0.1004 | 854.62 ± 0.4 | 2.993 ± 0.12
323.15 K, x1 = 0.151 | 887.3 ± 0.38 | 3.765 ± 0.16
323.15 K, x1 = 0.2009 | 916.37 ± 0.36 | 4.555 ± 0.19
323.15 K, x1 = 0.3101 | 967.87 ± 0.4 | 6.719 ± 0.28
323.15 K, x1 = 0.4279 | 1010.02 ± 0.47 | 9.919 ± 0.41
323.15 K, x1 = 0.5606 | 1047.3 ± 0.59 | 15.64 ± 0.65
323.15 K, x1 = 0.6901 | 1077.03 ± 0.73 | 26.31 ± 1.1
323.15 K, x1 = 0.8327 | 1103.61 ± 0.9 | 36.01 ± 1.5
323.15 K, x1 = 1 | 1128.88 ± 1.1 | 56.74 ± 2.4
328.15 K, x1 = 0.1004 | 850.65 ± 0.4 | 2.586 ± 0.11
328.15 K, x1 = 0.151 | 883.51 ± 0.38 | 3.266 ± 0.13
328.15 K, x1 = 0.2009 | 912.52 ± 0.36 | 3.949 ± 0.16
328.15 K, x1 = 0.3101 | 964.12 ± 0.4 | 5.855 ± 0.24
328.15 K, x1 = 0.4279 | 1006.35 ± 0.46 | 8.616 ± 0.36
328.15 K, x1 = 0.5606 | 1043.79 ± 0.59 | 13.62 ± 0.56
328.15 K, x1 = 0.6901 | 1073.6 ± 0.72 | 21.88 ± 0.91
328.15 K, x1 = 0.8327 | 1100.2 ± 0.89 | 29.92 ± 1.2
328.15 K, x1 = 1 | 1125.5 ± 1.1 | 48.36 ± 2
333.15 K, x1 = 0.1004 | 846.65 ± 0.4 | 2.21 ± 0.091
333.15 K, x1 = 0.151 | 879.73 ± 0.38 | 2.847 ± 0.12
333.15 K, x1 = 0.2009 | 908.64 ± 0.36 | 3.475 ± 0.14
333.15 K, x1 = 0.3101 | 960.36 ± 0.4 | 5.18 ± 0.21
333.15 K, x1 = 0.4279 | 1002.74 ± 0.46 | 7.6 ± 0.31
333.15 K, x1 = 0.5606 | 1040.26 ± 0.58 | 11.92 ± 0.49
333.15 K, x1 = 0.6901 | 1070.21 ± 0.72 | 18.98 ± 0.79
333.15 K, x1 = 0.8327 | 1096.86 ± 0.88 | 26.84 ± 1.1
333.15 K, x1 = 1 | 1122.14 ± 1.1 | 43.01 ± 1.8
338.15 K, x1 = 0.1004 | 842.59 ± 0.4 | 1.853 ± 0.076
338.15 K, x1 = 0.151 | 875.79 ± 0.38 | 2.526 ± 0.1
338.15 K, x1 = 0.2009 | 904.74 ± 0.37 | 3.056 ± 0.13
338.15 K, x1 = 0.3101 | 956.56 ± 0.4 | 4.566 ± 0.19
338.15 K, x1 = 0.4279 | 999.08 ± 0.46 | 6.374 ± 0.26
338.15 K, x1 = 0.5606 | 1036.78 ± 0.58 | 10.1 ± 0.42
338.15 K, x1 = 0.6901 | 1066.82 ± 0.71 | 15.78 ± 0.66
338.15 K, x1 = 0.8327 | 1093.56 ± 0.88 | 23.43 ± 0.97
338.15 K, x1 = 1 | 1118.8 ± 1.1 | 37.15 ± 1.6
